One data set deals with T1, 5-HT2C receptors (Rattus norvegicus, UniProt P08909).
T1 construct: Male rats of the Wistar line (Iffa-Credo, France); from tissue; host or cells: whole animal: male Wistar rat (in vivo)
T1 sequence (P08909 33-460): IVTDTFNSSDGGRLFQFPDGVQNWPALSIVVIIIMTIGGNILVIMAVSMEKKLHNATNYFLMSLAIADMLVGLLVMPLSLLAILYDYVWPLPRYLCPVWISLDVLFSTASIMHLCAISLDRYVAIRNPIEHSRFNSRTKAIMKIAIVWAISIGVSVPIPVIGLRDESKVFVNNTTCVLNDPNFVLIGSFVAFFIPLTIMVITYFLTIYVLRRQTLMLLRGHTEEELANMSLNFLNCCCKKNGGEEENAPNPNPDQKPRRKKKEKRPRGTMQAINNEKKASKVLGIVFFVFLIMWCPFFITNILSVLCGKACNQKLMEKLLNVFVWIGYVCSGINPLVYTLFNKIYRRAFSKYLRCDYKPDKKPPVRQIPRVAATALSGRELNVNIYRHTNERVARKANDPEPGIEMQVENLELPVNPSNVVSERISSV
The experiment in a line: Penile erection test in the rat, erection induced by Ro 60-0175. Type of data set: in vivo. The settings on record: for ED50: rat, sc, read-out: ID50 (inhibitory dose50) for inhibition of penile erections induced by Ro 60-0175. As for the experimental part: Penile Erection Test in the Rat, with Erection Induced by Ro 60-0175 (1.25 mg/kg, s.c.)
This test (Eur. J. Pharma., 1997, 325, 9-12) enables evaluation of the capacity of pharmacological agents to inhibit penile erections induced by the administration of Ro 60-0175, a selective 5-HT2C agonist. Inhibition is thus predictive of an antagonist activity in respect of 5-HT2C receptors. Male rats of the Wistar line (Iffa-Credo, France), weighing 120-140 g on the day of the experiment, are placed individually into plexiglass observation boxes (7.5×18×30 cm) having just been administered the product or its carrier. Thirty minutes later, the animals are administered Ro 60-0175 (1.25 mg/kg, s.c.) and the number of erections achieved in the course of the following 30 minutes is counted.

Take `CCOC(=O)C1(C2NCCc3c2[nH]c2ccc(Cl)cc32)CCC1.Cl` (stereo not drawn) [Example 1, Ethyl 1-(6-chloro-2,3,4,9-tetrahydro-1H-β-carbolin-1-yl)cyclobutanecarboxylate Hydrochloride]: the ED50 at 5-HT2C receptors is 0.9 mg/kg. In the case of `CCOC(=O)C1(C2c3[nH]c4ccc(Cl)cc4c3CCN2C(C)=O)CCC1` (stereo not drawn) [Example 79, Ethyl 1-(2-acetyl-6-chloro-2,3,4,9-tetrahydro-1H-β-carbolin-1-yl)cyclobutanecarboxylate], the melting point lay within 218 to 219 °C. For `CCOC(=O)C1(C2NCCc3c2[nH]c2ccc(OC)cc32)CCC1.Cl` (stereo not drawn) [Example 7, Ethyl 1-(6-methoxy-2,3,4,9-tetrahydro-1H-β-carbolin-1-yl)cyclobutanecarboxylate Hydrochloride], the ED50 on 5-HT2C receptors turned out to be 1.1 mg/kg. Still for that read-out and setting: in the case of `CCOC(=O)C1(C2NCCc3c2[nH]c2cc(Cl)c(Cl)cc32)CCC1.Cl` (stereo not drawn) [Example 6, Ethyl 1-(6,7-dichloro-2,3,4,9-tetrahydro-1H-β-carbolin-1-yl)cyclobutanecarboxylate Hydrochloride] it was 0.9 mg/kg. Turning to `COC(=O)C1(C2NCCc3c2[nH]c2ccc(Cl)cc32)CCC1.Cl` (stereo not drawn), the melting point is 232 to 233 °C. Regarding `CCOC(=O)C1(C2NCCc3c2[nH]c2ccc(Cl)c(Cl)c32)CCC1.Cl` (stereo not drawn) [Example 18, Ethyl 1-(5,6-dichloro-2,3,4,9-tetrahydro-1H-β-carbolin-1-yl)cylobutanecarboxylate Hydrochloride], the “ID50 (inhibitory dose50) for inhibition of penile erections induced by Ro 60-0175” value at 5-HT2C receptors (s.c., male Wistar rats, product given 30 min before Ro 60-0175 (1.25 mg/kg, s.c.), erections counted over following 30 min) is on record as 0.5 mg/kg.

The values above are taken from patent US6350757B1, “Beta-carboline compounds” (Les Laboratoires Servier, priority 1999, dated 2002).
